In PubChem BioAssay AID179 (DTP/NCI, 2004):
The source made the active and inactive calls.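 The calls were made as follows: active = compounds giving half or more protection of infected cells from virus-caused growth loss, again on retest; inactive = the rest.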

Test system: CEM cells HIV-1 protection, formazan growth assay
Assay: NCI AIDS Antiviral Assay
Conditions: for IC50: measured here: growth of uninfected CEM cells
Outline: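 Soluble formazan readout of cell growth; CEM cells ± HIV-1; 5 drug concs. ≥50% protection → retest; ≥50% again = moderately active; reproducible 100% = confirmed active.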

| Compound | EC50 | IC50 | outcome |
| --- | --- | --- | --- |
| COc1cnc2cc3c4c(cccc4c2c1)NC3=O | > 100 µM | 3.98 µM | – |
| CN(C)c1ccc(C(C=C2c3ccccc3Sc3ccccc32)=C(C#N)C#N)cc1 | – | – | inactive |
| O=C(O)Cc1cccc2c1OC(c1ccccc1)C(C(=O)c1ccccc1)C2=O (centres undefined) | > 200 µM | 75.9 µM | – |
| O=C(O)c1cscc1Cc1cccs1 | > 200 µM | > 200 µM | – |
| COc1cccc(/C=C/C(=O)c2ccccc2)c1O | 14.5 µM | 112 µM | – |
| O=C(OC1C=C=CS(=O)(=O)CC#C/C=C\1)c1cnc2ccccc2n1 (centres undefined) | > 200 µM | 102 µM | – |
| CN1CCC2(CC1)SC[C@H]1C(=O)N(c3ccc(Cl)cc3)C(=O)N12 | > 200 µM | 120 µM | – |
| O=S(=O)(O)SCCNCC(O)C(O)CNCCSS(=O)(=O)O (centres undefined) | > 617 µM | 120 µM | – |
| COc1ccc2nc3c([N+](=O)[O-])ccc(NCCCN(C)C)c3c(N)c2c1 | > 200 µM | 0.195 µM | – |
| CO[C@H]1c2cccc3cccc(c23)[C@@H]1n1[nH]c(=O)n(C(C)(C)C)c1=O | > 200 µM | > 200 µM | – |
| Oc1ccc(-c2c3ccccc3c(-c3ccc(OCCBr)cc3)c3ccccc23)cc1 | > 100 µM | > 100 µM | – |
| C=C1CC(CC)(CCN2C(=O)c3ccccc3C2=O)OC1=O (centres undefined) | > 209 µM | 10.5 µM | – |
| O=C(NNCC(O)COc1ccccc1)c1ccccc1 (centres undefined) | > 200 µM | > 200 µM | – |
| OC(c1ccc(F)cc1)C(F)(F)c1nc2ccccc2o1 (centres undefined) | > 200 µM | > 200 µM | – |
| O=C1C2C(C(=O)N1c1ccccc1)C1(c3ccccc3)OC2(c2ccccc2)c2ccccc21 (centres undefined) | – | – | inactive |
| Cc1cc(C)c(C(=O)C(C)C(c2ccccc2)c2ccc(Cl)cc2)c(C)c1 (centres undefined) | > 26.3 µM | > 26.3 µM | – |
| CN(CCN1C(=O)c2cccc3cc(N)cc(c23)C1=O)CCN1C(=O)c2cccc3cc(N)cc(c23)C1=O | > 21.9 µM | 0.155 µM | – |
| CN1C(=O)C(Cl)(C#N)C(c2ccccc2)N(C)C1c1ccccc1 (centres undefined) | > 200 µM | 8.71 µM | – |
| CN(C(=O)C12C3(C(=O)C(C)(C)C)C4C5(C#N)C3C1(C(=O)C(C)(C)C)C5C42C(=O)C(C)(C)C)C(C)(C)C (centres undefined) | > 52.5 µM | > 52.5 µM | – |
| CN(C)CCN(C)CCN(C)C.Cc1ccc(S(=O)(=O)[O-])cc1.Cc1ccc(S(=O)(=O)[O-])cc1.[Pd+2] | > 200 µM | 10.7 µM | – |
| Nc1ccc2oc3cccc(N)c3c(=O)c2c1 | > 22.9 µM | > 22.9 µM | – |
| COC(=O)CC(C(C(=O)OC)C(=O)OC)N1C(=O)OC(c2ccccc2)C1c1ccccc1 (centres undefined) | 37.2 µM | 74.1 µM | – |

| Compound | EC50 | IC50 | outcome |
| --- | --- | --- | --- |
| CCOC(OCC)[C@H](N)[C@@H](O)[C@@H](O)[C@H]1COC(C)(C)O1 | > 200 µM | > 200 µM | – |
| CC12OC3(C)c4ccccc4OP3(c3ccccc3)(Oc3ccccc31)O2 (centres undefined) | > 79.4 µM | > 79.4 µM | – |
| [B]C(=O)NC(CC(C)C)C(=O)NCC(=O)NC1c2ccsc2C(=O)C1O (centres undefined) (tested in a mixture with another compound) | > 200 µM | > 200 µM | – |
| CC(=O)Nc1ccc(S2=Nc3ccccc3S2)cc1 (centres undefined) | > 49 µM | 16.2 µM | – |
| COC1(C)OC23C(=O)N(C)C(=O)N(C)C2(O1)N(C(C)=O)C(=O)N3C (centres undefined) | > 200 µM | > 200 µM | – |
| NC(=S)N/C=C(/c1ccc(Cl)cc1Cl)S(=O)(=O)Cc1ccc(Cl)cc1Cl | > 100 µM | > 100 µM | – |
| COC(=O)c1cc(C#N)[nH]c1-c1ccc(Br)s1 | > 200 µM | 4.37 µM | – |
| COC(=O)C1OC2(CCCC3CC32)O[C@H]1C(=O)OC (some centres undefined) | – | – | inactive |
| CC(C)NC(=O)OCc1c(COC(=O)NC(C)C)c(-c2ccc(Cl)c(Cl)c2)n2c1CCC2 | > 7.41 µM | 4.47 µM | – |
| CC(=O)OC1=C(c2ccccc2)c2ccccc2OC1 | > 26.9 µM | > 26.9 µM | – |
| O=c1c2cc(-c3ccccc3)cnc2sn1-c1ccc(Oc2ccccc2)cc1 | 69.2 µM | 110 µM | – |
| CCCN=C(C(C)=O)N(C)C | > 1580 µM | 871 µM | – |
| O=C(Nc1ccn(C2CC(O)C(CO)O2)c(=O)n1)c1ccccc1 (centres undefined) | > 200 µM | > 200 µM | – |
| COc1ccc(S(=O)(=O)N(C)c2ccccc2)cc1 | > 200 µM | 7.76 µM | – |
| CC(=O)c1sc2c(c1O)c(=O)n(-c1ccccc1)c(=S)n2-c1ccccc1 | > 240 µM | 70.8 µM | – |
| CCOC(=O)c1sc2nc(SC)nc3c2c1N=CN3c1ccc(Br)cc1 | – | – | inactive |
| CC(=O)OCC1OC(n2c(-c3ccc(C)cc3)cc(-c3ccco3)c(C#N)c2=S)C(OC(C)=O)C(OC(C)=O)C1OC(C)=O (centres undefined) | > 200 µM | 155 µM | – |
| CC1(C)CCC[C@]2(C)c3occc3CCC12 (some centres undefined) | – | – | inactive |
| CCCCCCCCCCCCCCCCCC(=O)NCC(COP(=O)(O)O)OCC (centres undefined) | > 21.4 µM | > 21.4 µM | – |
| C#CCn1c2c(c3ccccc3c1=O)C(=O)c1ccccc1-2 | > 63.1 µM | > 63.1 µM | – |
| COc1ccc(NC(=O)/C(=C\N2C(=O)CC(=O)NC2=S)C(C)=O)cc1 | > 200 µM | 25.7 µM | – |
| CCC1(CCC#N)CCc2[nH]c3ccccc3c2C1=O (centres undefined) | > 200 µM | 174 µM | – |

| Compound | EC50 | IC50 | outcome |
| --- | --- | --- | --- |
| c1ccc(Nn2c(CCCCCCCCc3nnc(COc4ccccc4)n3Nc3ccccc3)nnc2COc2ccccc2)cc1 | > 2 µM | > 2 µM | – |
| CNC(=O)N1N[C@H](c2ccccc2)[C@@H]1c1ccccc1 | > 200 µM | 42.7 µM | – |
| COC(=O)C1=C2Nc3ccccc3[C@@]23CCN(Cc2ccccc2)C3C[C@H]1c1ccoc1 (some centres undefined) | > 29.5 µM | > 29.5 µM | – |
| Cc1cc(NS(=O)(=O)c2ccc(NC(=O)c3ccc4nc5ccccc5c(Nc5ccc(S(=O)(=O)N=C(N)N)cc5)c4c3)cc2)no1 | > 75.9 µM | 24.5 µM | – |
| CCOC(=O)C(NC(=O)c1ccccc1)(Nc1ccc(S(=O)(=O)Nc2ncccn2)cc1)C(F)(F)F (centres undefined) | > 200 µM | > 200 µM | – |
| CC1(C)OC2C(=O)OC(COCc3ccccc3)C2O1 (centres undefined) | > 36.3 µM | > 36.3 µM | – |
| CC1(C)[C@H]2Cc3cc4nc5ccccn5c4cc3[C@@H]1C2 | > 200 µM | 24 µM | – |
| O=C1NC(=S)S/C1=C\c1cccs1 | > 60.3 µM | > 60.3 µM | – |
| N#C/C(C(=S)Nc1ccccc1)=C(/N)N1CCCC1 | > 200 µM | 105 µM | – |
| CCCN1CN(c2ccccc2)C2(CCN(CCCC(=O)c3ccc(F)cc3)CC2)C1=O | > 200 µM | 3.02 µM | – |
| N#CC(NCCc1ccccc1)c1ccc(OCCCCCCCCCCOc2ccc(C(C#N)NCCc3ccccc3)cc2)cc1 (centres undefined) | > 50.1 µM | 22.9 µM | – |
| CC1(C)CCCOc2ccc(C(=O)O)cc21 | > 200 µM | > 200 µM | – |
| CN(C)c1c(C2OC(CO)C(O)C2O)c(=O)c1=O (centres undefined) | > 200 µM | > 200 µM | – |
| CCOC(=O)N1CCC2C(=C(C)C(C)C3=C2C(=O)c2ccccc2C3=O)C1 (centres undefined) | > 100 µM | > 100 µM | – |
| N=C1N=C(N)c2cc3c(cc21)SCCSCCCSCCS3 | > 50.1 µM | 8.51 µM | – |
| COc1ccc(C(=O)CCN(C)C)cc1 | > 200 µM | 36.3 µM | – |
| NS(=O)(=O)c1cc[c]([Sb](=[O])([OH])[OH])cc1 | > 200 µM | > 200 µM | – |
| Cc1ccc(S(=O)(=O)Nn2c(O)c(C#N)c(-c3ccc([N+](=O)[O-])cc3)c(C#N)c2=O)cc1 | > 200 µM | > 200 µM | – |
| CC(C)(C)[Si](C)(C)OC1CCOC1(O)c1ccccn1 (centres undefined) | > 200 µM | 66.1 µM | – |
| O=C(OCC12CC3CC(CC(C3)C1)C2)c1ccc(NCc2cc(O)ccc2O)cc1 | > 2 µM | 1.78 µM | – |
| Cc1cccc(C)c1NC(=O)CCc1nnc2s/c(=C\c3ccc(Cl)cc3)c(=O)n12 | > 1.7 µM | > 1.7 µM | – |
| COc1ccccc1/C=C(\C#N)C(=O)O | > 646 µM | 251 µM | – |

| Compound | EC50 | IC50 | outcome |
| --- | --- | --- | --- |
| COC(O)C12OC3CO[Si](C(C)C)(C(C)C)O[Si](C(C)C)(C(C)C)OC3C1Oc1nc(=O)ccn12 (centres undefined) | > 200 µM | 30.2 µM | – |
| O=C(O)c1cc(C(=O)Nc2ccc(C3=NCCN3)cc2)c(C(=O)O)cc1C(=O)Nc1ccc(C2=NCCN2)cc1 | > 200 µM | > 200 µM | – |
| CC12c3c4ccc(C=O)c3Oc3ccc(C=O)c(c31)Oc1ccc(C=O)c(c12)O4 | > 25.1 µM | 13.5 µM | – |
| CC(C)(C)NC(=O)CCC(=O)O | > 200 µM | 110 µM | – |
| Cc1coc2c1C1OC(=O)C3(C/C=C\C(C)C2)OC13 (centres undefined) | > 72.4 µM | > 72.4 µM | – |
| COC1CC(OC2C(C)OC(OC3C(C)OC(OC4C(C)OC(O[C@H]5CC[C@@]6(C)C(=CC[C@]7(O)[C@@H]6C[C@@H](OC(C)=O)[C@@]6(C)[C@]7(O)CC[C@@]6(O)C(C)=O)C5)CC4OC)CC3OC)CC2OC)OC(C)C1O (some centres undefined) | > 200 µM | > 200 µM | – |
| COc1ccc(/C=C/C(=O)c2sc(-n3nc(-c4ccccc4)cc3-c3ccccc3)nc2C)cc1OC | > 70.8 µM | 38 µM | – |
| O=C(NC(Cc1cnc[nH]1)C(=O)N1CCCC1)C1CCCC1 (centres undefined) | > 200 µM | – | – |
| CC1CCCC(C(O)CC2CC(=O)N(c3ccccc3)C(=O)C2)C1=O (centres undefined) | > 200 µM | > 200 µM | – |
| CCOP(=O)(OCC)Oc1ccc(Sc2ccc(OP(=O)(OCC)OCC)cc2)cc1 | > 200 µM | 85.1 µM | – |
| O=C(O)CCNCCCNCCC(=O)O | > 851 µM | > 851 µM | – |
| COC(=O)C1(COCc2ccccc2)CCCC2OC21 (centres undefined) | – | – | inactive |
| O=C1C=C(Nc2ccccc2C(=O)CC(=O)C(=O)Nc2cccc(C(F)(F)F)c2)c2ccccc2C1=O | > 37.2 µM | 6.61 µM | – |
| CCOC(=O)c1cc2c3c(c(O)c(OC)c2s1)N(C(=O)c1cc2c4c(c(O)c(OC)c2s1)N(C(C)=O)CC4)CC3 | – | – | inactive |
| CCCCCCCCCCOC1C(C(C)OCCCN(C)C)OC2OC3(CCCCC3)OC21 (centres undefined) | > 200 µM | 10.5 µM | – |
| COC(=O)c1ncn(C2CCCCC2)c1N | > 200 µM | > 200 µM | – |
| CCCCCC=C(c1cc(I)c(OC)c(C(=O)OC)c1)c1cc(I)c(OC)c(C(=O)OC)c1 | > 200 µM | 166 µM | – |
| Clc1nc(Cl)nc(Nc2ccccc2Cl)n1 | > 200 µM | 97.7 µM | – |
| Cc1cccc(C)c1NC(=O)CCCC(=O)C(C#N)c1ccc(Cl)cc1 (centres undefined) | > 135 µM | > 135 µM | – |
| C1=C\SS/C=C\SS/1 | > 200 µM | 22.9 µM | – |
